The values below come from patent publication US20250136555A1 (HARBIN MEDISAN PHARMACEUTICAL CO., LTD., priority 2022, published 2025).

Molecules are shown by their SMILES. pEC50: −log10 of the molar value. Where two headings read alike, the source gives them in different places.

Common to all, as to assay type: cell-based
For one assay, the target named is T1, PPARδ (Homo sapiens, UniProt Q03181).
T1 construct: expressed in transfected cells; host or cells: COS-7
T1 sequence (Q03181 211-439 limits assumed): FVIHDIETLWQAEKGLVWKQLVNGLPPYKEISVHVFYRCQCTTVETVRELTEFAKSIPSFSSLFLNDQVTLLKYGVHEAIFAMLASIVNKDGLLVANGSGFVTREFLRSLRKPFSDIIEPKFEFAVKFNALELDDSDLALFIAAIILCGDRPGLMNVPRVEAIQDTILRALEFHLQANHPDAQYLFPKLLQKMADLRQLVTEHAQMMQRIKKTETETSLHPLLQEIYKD
The assay is described as follows: GAL4 hybrid reporter gene method, PPARδ agonistic activity. Background: A reporter such as luciferase makes a cellular process visible.

The next assay deals with T2, PPARγ (Homo sapiens, UniProt P37231).
T2 construct: expressed in transfected cells; host or cells: COS-7
T2 sequence (P37231 238-503 limits assumed): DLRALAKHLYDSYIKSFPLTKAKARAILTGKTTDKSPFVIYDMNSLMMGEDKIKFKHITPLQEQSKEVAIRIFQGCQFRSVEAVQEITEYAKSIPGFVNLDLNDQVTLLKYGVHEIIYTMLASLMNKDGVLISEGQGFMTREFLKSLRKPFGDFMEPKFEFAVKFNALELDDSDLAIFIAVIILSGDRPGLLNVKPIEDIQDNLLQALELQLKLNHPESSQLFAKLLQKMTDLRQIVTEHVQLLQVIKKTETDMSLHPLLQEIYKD
Nature of the assay: GAL4 hybrid reporter gene method, PPARγ agonistic activity.

The next assay deals with T3, PPARα (Homo sapiens, UniProt Q07869).
T3 construct: expressed in transfected cells; host or cells: COS-7
T3 sequence (Q07869 239-466 limits assumed): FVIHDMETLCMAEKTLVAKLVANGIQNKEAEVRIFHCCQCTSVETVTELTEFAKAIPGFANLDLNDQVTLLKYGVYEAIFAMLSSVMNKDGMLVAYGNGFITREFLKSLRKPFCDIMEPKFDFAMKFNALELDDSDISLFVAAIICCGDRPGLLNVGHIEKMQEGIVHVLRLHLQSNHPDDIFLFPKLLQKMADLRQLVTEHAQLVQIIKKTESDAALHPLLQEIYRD
The assay is described as follows: GAL4 hybrid reporter gene method, PPARα agonistic activity. The following applies: Cos-7 cells, Gal4-PPARα (LBD); GW7647 10 nM = 100%; 16 h.

Where [1] appears, read: Cos-7 cells, Gal4-PPARδ (LBD), GW501516 10 nM = 100%, 16 h.
Setting [2] is: Cos-7 cells, Gal4-PPARγ (LBD), Rosiglitazone 1 μM = 100%, 16 h.

In general, pEC50 refers to the negative decadic logarithm of the EC50, by convention in mol/L. A higher pEC50 goes with a low EC50.

Procedure for PPARα: (§1) Cos-7 cells (African green monkey kidney fibroblasts, commonly used tool cells) were cultured in a 10-cm cell culture dish with a DMEM complete medium containing 10% fetal bovine serum. When growing at a density of about 70%, the cells were ready for transfection. […] The working solution described above was then combined with 8 mL of the DMEM complete medium, and the mixture was added to the cell culture dish for cell transfection. After 4 h of transfection, the cells were digested, resuspended, and seeded into a 96-well plate at 25,000 cells/well. […] 10 μL of a reporter gene detection solution (purchased from Shanghai Beyotime Biological Tech. Co., Ltd.) was added. After the resulting solution was mixed and reacted, biological fluorescence was detected by using a multifunctional microplate reader, and corresponding half maximal effective concentration (EC50) values were calculated according to the detection values. […] Transfection working solutions for different nuclear receptors were prepared and added into COS-7 cells. The preparation method for the transfection working solution was as follows: the constructed pBIND-Gal4-PPARα (LBD) (or pBIND-Gal4-PPARδ (LBD) plasmid or pBIND-Gal4-PPARγ (LBD) plasmid or pBIND-Gal4-RARα (LBD) plasmid or pBIND-Gal4-RARγ (LBD) plasmid or pBIND-Gal4-RARβ (LBD) plasmid or pBIND-Gal4-RORα (LBD) plasmid or pBIND-Gal4-RORγ (LBD) plasmid or pBIND-Gal4-RORβ (LBD) plasmid or pBIND-Gal4-FXR (LBD) plasmid or pBIND-Gal4-RXRα.
Procedure for PPARδ: as §1

As to `Cc1cc(CN2C(=O)CN(c3ccc(OC(F)(F)F)cc3)C2=O)cc(C)c1OC(C)(C)C(=O)O` [Compound 3, 2-(4-((2,5-Dioxo-3-(4-(trifluoromethoxy)phenyl)imidazolidin-1-yl)methyl)-2,6-dimethylphenoxy)-2-methylpropionic Acid], the pEC50 was 8.36 on PPARδ (setting [1]) and 5.38 on PPARγ. On PPARδ (setting [1]), the “PPARδ EC50 (nM)” value was “low nanomolar levels”.
Regarding `Cc1cc(CN2C(=O)N(c3ccc(C(F)(F)F)cc3)C(C)(C)C2=O)cc(C)c1OC(C)(C)C(=O)O` [Compound 5, 2-(4-((4,4-Dimethyl-2,5-dioxo-3-(4-(trifluoromethyl)phenyl)imidazolin-1-yl)methyl)-2,6-dimethylphenoxy)-2-methylpropionic Acid], the negative logarithm of the EC50 (pEC50) was 6.60 at PPARα and 7.22 at PPARδ (setting [1]).
For the compound `Cc1cc(CN2C(=O)N(c3ccc(OC(F)(F)F)cc3)C(C)(C)C2=O)cc(C)c1OC(C)(C)C(=O)O` [Compound 7], the pEC50 on PPARα is 6.18; on PPARδ, 6.75.
As for `Cc1cc(CN2C(=O)CN(c3ccc(C(F)(F)F)cc3)C2=O)ccc1OCC(=O)O` [Compound 9, 2-(4-((2,5-Dioxo-3-(4-(trifluoromethyl)phenyl)imidazolidin-1-yl)methyl)-2-methylphenoxy)acetic Acid], the pEC50 at PPARα is 6.00; on PPARδ, 6.01; on PPARγ, < 5.30.
The like results for `CC(C)(Oc1ccc(CN2C(=O)CN(c3ccc(C(F)(F)F)cc3)C2=O)cc1C(F)(F)F)C(=O)O` [Compound 11, 2-(4-((2,5-Dioxo-3-(4-(trifluoromethyl)phenyl)imidazolidin-1-yl)methyl)-2-(trifluoromethyl)phenoxy)-2-methylpropionic Acid] were, in that order, 7.11, 7.48 and 5.60.
As to `Cc1cc(CN2C(=O)CN(c3ccc(C(F)(F)F)cc3)C2=O)cc(Cl)c1OC(C)(C)C(=O)O` [Compound 13, 2-(2-Chloro-4-((2,5-dioxo-3-(4-(trifluoromethyl)phenyl)imidazolidin-1-yl)methyl)-6-methylphenoxy)-2-methylpropionic Acid], the results for the pEC50 on PPARα, at PPARδ and at PPARγ were 8.92, 7.97 and 5.89, respectively.
In turn, `CC(C)(Oc1c(Cl)cc(CN2C(=O)CN(c3ccc(C(F)(F)F)cc3)C2=O)cc1Cl)C(=O)O` [Compound 17, 2-(2,6-Dichloro-4-((2,5-dioxo-3-(4-(trifluoromethyl)phenyl)imidazolidin-1-yl)methyl)phenoxy)-2-methylpropionic Acid] had a negative logarithm of the EC50 (pEC50) at PPARδ (setting [1]) of 7.61.
Consider `CC(C)(Oc1c(Br)cc(CN2C(=O)CN(c3ccc(C(F)(F)F)cc3)C2=O)cc1Br)C(=O)O` [Compound 19, 2-(2,6-Dibromo-4-((2,5-dioxo-3-(4-(trifluoromethyl)phenyl)imidazolidin-1-yl)methyl)phenoxy)-2-methylpropionic Acid], for which the pEC50 is 8.66 on PPARα and 7.63 on PPARδ (setting [1]).
On to `CC(C)(Oc1c(F)cc(CN2C(=O)CN(c3ccc(C(F)(F)F)cc3)C2=O)cc1F)C(=O)O` [Compound 21, 2-(4-((2,5-Dioxo-3-(4-(trifluoromethyl)phenyl)imidazolin-1-yl)methyl)-2,6-difluorophenoxy)-2-methylpropionic Acid], for which the values for the pEC50 on PPARα, on PPARδ (setting [1]) and on PPARγ were 7.37, 7.00 and < 5.30, respectively.
On to `Cc1ccc(N2CC(=O)N(Cc3cc(C)c(OC(C)(C)C(=O)O)c(C)c3)C2=O)cc1` [Compound 23, 2-(4-((2,5-Dioxo-3-(4-methylphenyl)imidazolin-1-yl)methyl)-2,6-dimethylphenoxy)-2-methylpropionic Acid], for which the pEC50 at PPARα is 7.58; at PPARδ (setting [1]) it was 7.59; at PPARγ (setting [2]), 6.20.
For the compound `Cc1cc(CN2C(=O)CN(c3ccc(F)cc3)C2=O)cc(C)c1OC(C)(C)C(=O)O` [Compound 25, 2-(4-((3-(4-Fluorophenyl)-2,5-dioxoimidazolin-1-yl)methyl)-2,6-dimethylphenoxy)-2-methylpropionic Acid], the pEC50 is 7.00 on PPARα, 7.14 at PPARδ (setting [1]) and 5.44 at PPARγ (setting [2]).
As to `Cc1cc(CN2C(=O)CN(c3ccc(Cl)cc3)C2=O)cc(C)c1OC(C)(C)C(=O)O` [Compound 27, 2-(4-((3-(4-Chlorophenyl)-2,5-dioxoimidazolin-1-yl)methyl)-2,6-dimethylphenoxy)-2-methylpropionic Acid], the values for the pEC50 on PPARα and at PPARγ (setting [2]) were 7.77 and 5.85, respectively.
`Cc1cc(N2CC(=O)N(Cc3cc(C)c(OC(C)(C)C(=O)O)c(C)c3)C2=O)ccc1C(F)(F)F` [Compound 29, 2-(2,6-Dimethyl-4-((3-(3-methyl-4-(trifluoromethyl)phenyl)-2,5-dioxoimidazolin-1-yl)methyl)phenoxy)-2-methylpropionic Acid]: the figures for the pEC50 at PPARα, at PPARδ and at PPARγ were 8.85, 9.00 and 6.13, respectively. In addition, the “PPARα EC50 (nM)” value on PPARα is “low nanomolar levels”. The “PPARδ EC50 (nM)” value at PPARδ (setting [1]) is “low nanomolar levels”.
For the compound `Cc1cc(CN2C(=O)CN(c3ccc(C(F)(F)F)c(F)c3)C2=O)cc(C)c1OC(C)(C)C(=O)O` [Compound 31, 2-(2,6-Dimethyl-4-((3-(3-fluoro-4-(trifluoromethyl)phenyl)-2,5-dioxoimidazolin-1-yl)methyl)phenoxy)-2-methylpropionic Acid], the pEC50 at PPARα is 8.68; on PPARδ (setting [1]), 9.10.
Consider `Cc1cc(CN2C(=O)CN(c3ccc(C(F)(F)F)c(Cl)c3)C2=O)cc(C)c1OC(C)(C)C(=O)O` [Compound 33, 2-(2,6-Dimethyl-4-((3-(3-chloro-4-(trifluoromethyl)phenyl)-2,5-dioxoimidazolin-1-yl)methyl)phenoxy)-2-methylpropionic Acid], for which, at PPARα, the pEC50 is 9.00 and the “PPARα EC50 (nM)” value is given as “low nanomolar levels”. Moreover, at PPARδ (setting [1]), the negative logarithm of the EC50 (pEC50) was 8.77 and the “PPARδ EC50 (nM)” value is recorded as “low nanomolar levels”. Moreover, the pEC50 on PPARγ (setting [2]) is 6.18.
For `Cc1cc(CN2C(=O)CN(c3ccccc3)C2=O)cc(C)c1OC(C)(C)C(=O)O` [Compound 35, 2-(4-((2,5-Dioxo-3-phenylimidazolin-1-yl)methyl)-2,6-dimethylphenoxy)-2-methylpropionic Acid], the pEC50 was 6.78 on PPARα, 7.04 on PPARδ (setting [1]) and 5.68 on PPARγ (setting [2]).
The like results for `Cc1cc(CN2C(=O)CN(c3ccc(C#N)cc3)C2=O)cc(C)c1OC(C)(C)C(=O)O` [Compound 37, 2-(4-((3-(4-Cyanobenzene)-2,5-dioxoimidazolin-1-yl)methyl)-2,6-dimethylphenoxy)-2-methylpropionic Acid] were, in that order, 7.01, 7.07 and 5.39.
Take `CSc1ccc(N2CC(=O)N(Cc3cc(C)c(OC(C)(C)C(=O)O)c(C)c3)C2=O)cc1` [Compound 43]: on PPARα, the “PPARα EC50 (nM)” value is “low nanomolar levels”. In addition, the “PPARδ EC50 (nM)” value at PPARδ (setting [1]) was “low nanomolar levels”.
`Cc1cc(CN2C(=O)CN(c3ccc(Br)cc3)C2=O)cc(C)c1OC(C)(C)C(=O)O` [Compound 61, 2-(4-((3-(4-Bromophenyl)-2,5-dioxoimidazolin-1-yl)methyl)-2,6-dimethylphenoxy)-2-methylpropionic Acid]: the pEC50 on PPARα was 8.41; at PPARγ (setting [2]), 5.92. Moreover, at PPARα, the “PPARα EC50 (nM)” value is “low nanomolar levels”.
`Cc1cc(CN2C(=O)CN(c3ccc(C(F)(F)F)cc3)C2=O)cc(C)c1OC(C)C(=O)O` (centres unmarked) [Compound 63, 2-(4-((2,5-Dioxo-3-(4-(trifluoromethyl)phenyl)imidazolin-1-yl)methyl)-2,6-dimethylphenoxy)propionic Acid]: the pEC50 was 7.60 on PPARα and 8.40 at PPARδ.
Turning to `Cc1cc(CN2C(=O)CN(c3ccc(C(C)C)cc3)C2=O)cc(C)c1OC(C)(C)C(=O)O` [Compound 65, 2-(4-((3-(4-Isopropylphenyl)-2,5-dioxoimidazolin-1-yl)methyl)-2,6-dimethylphenoxy)-2-methylpropionic Acid], the pEC50 at PPARα was 9.10; at PPARγ (setting [2]), 6.01.
In the case of `CCc1ccc(N2CC(=O)N(Cc3cc(C)c(OC(C)(C)C(=O)O)c(C)c3)C2=O)cc1` [Compound 75, 2-(4-(3-(4-Ethylphenyl)-2,5-dioxoimidazolidin-1-yl)methyl)-2,6-dimethylphenoxy-2-methylpropionic Acid], at PPARα, the pEC50 is 9.00 and the “PPARα EC50 (nM)” value is listed as “low nanomolar levels”. In addition, at PPARδ (setting [1]), the pEC50 was 8.20 and the “PPARδ EC50 (nM)” value is “low nanomolar levels”.
The compound `Cc1cc(CN2C(=O)CN(Cc3ccc(C(F)(F)F)cc3)C2=O)cc(C)c1OC(C)(C)C(=O)O` [Compound 93] gave a pEC50 on PPARγ (setting [2]) of 5.83.
